pIC50: −log10 of the molar value.
Experiments:
CDK4/cyclin D3 = target: T1, CDK4/cyclin D3 (Homo sapiens, UniProt P11802); experiment: Human CDK4/cyclin D3 inhibitory activity (QS S Assist CDK4/Cyclin D3_FP Kit, IMAP fluorescent polarization); assay type: biochemical; settings: read-out: CDK4 Activity symbol
T1 construct: purchased Carna Biosciences, Inc. QS S Assist CDK4/Cyclin D3_FP Kit
Procedure: Human CDK4/Cyclin D3 Inhibitory Activity
(§1) Each compound was analyzed for CDK4/cyclin D3 inhibitory activity with an assay kit (QS S Assist CDK4/Cyclin D3_FP Kit, available from Carna Biosciences, Inc.). This assay kit determines kinase activity on the basis of the IMAP technology by Molecular Devices. Specifically, the kinase activity is determined through quantification of a variation in fluorescent polarization caused by binding of a kinase-phosphorylated fluorescent substance to an IMAP-binding reagent.
Each solution was prepared with the 10× assay buffer attached to the kit or a separately prepared assay buffer having the same composition as the assay buffer attached to the kit. An assay buffer was prepared by 10-fold dilution of the 10× assay buffer with distilled water. The assay buffer contains 20 mM HEPES (pH 7.4), 0.01% Tween20, and 2 mM dithiothreitol. A test compound solution was prepared by dilution of the test compound with dimethyl sulfoxide (DMSO) to a concentration 100 times higher than the final concentration and then 25-fold dilution with the assay buffer to a concentration four times higher than the final concentration. An ATP/substrate/Metal solution was prepared by five-fold dilution of the 5×ATP/substrate/Metal solution attached to the kit with the assay buffer. An enzyme solution was prepared by dilution of the CDK4/cyclin D3 attached to the kit with the assay buffer to a concentration twice higher than the final concentration (final concentration of CDK4/cyclin D3: 12.5 to 25 ng/well). A detection reagent was prepared by five-fold dilution of each of 5×IMAP-binding buffer A and 5×IMAP-binding buffer B with distilled water, mixing of IMAP-binding buffer A with IMAP-binding buffer B at a ratio of 85:15, and 400-fold dilution of the IMAP-binding reagent with the mixed buffer.
(§2) The test compound solution (5 μL/well) and the ATP/substrate/Metal solution (5 μL/well) were added to a 384-well plate, and the enzyme solution or the assay buffer (10 μL/well) was added to the plate (total amount of the reaction mixture: 20 μL/well) for initiation of enzymatic reaction. […] The reaction was performed at room temperature for 45 minutes, and the detection reagent (60 μL/well) was then added to the plate, followed by further reaction for 30 minutes at room temperature under light shielding conditions. Subsequently, fluorescent polarization was determined with a microplate reader at an excitation wavelength of 485 nm and an emission wavelength of 535 nm.
(§3) The percent inhibition of enzyme activity was calculated for each test compound (note: enzyme activity=100% in the case of addition of the enzyme solution and addition of DMSO instead of the test compound solution, whereas enzyme activity […] in the case of addition of the assay buffer instead of the enzyme solution, and addition of DMSO instead of the test compound solution). The percent inhibition of enzyme activity was fitted to a dose-response curve, to determine a 50% inhibitory concentration against CDK4/cyclin D3.
In each table, “+++” corresponds to IC50<10 nM. “++” 10 nM […] IC50<100 nM, and “+” 100 nM≤IC50.

CDK2/cyclin A2 = target: T2, CDK2/cyclin A2 (Homo sapiens, UniProt P24941); experiment: Human CDK2/cyclin A2 inhibitory activity (QS S Assist CDK2/Cyclin A2_FP Kit, IMAP fluorescent polarization); assay type: biochemical; settings: read-out: CDK2 Activity symbol
T2 construct: purchased Carna Biosciences, Inc. QS S Assist CDK2/Cyclin A2_FP Kit
Procedure: Human CDK2/Cyclin A2 Inhibitory Activity
as §1, with “CDK2/cyclin A2” for “CDK4/cyclin D3”, “CDK2/Cyclin A2_FP” for “CDK4/Cyclin D3_FP”
An assay buffer was prepared by 10-fold dilution of the 10× assay buffer attached to the kit with distilled water, and each solution was prepared with the assay buffer. The assay buffer contained 20 mM HEPES (pH 7.4), 0.01% Tween 20, and 2 mM dithiothreitol. A test compound solution was prepared by dilution of the test compound with dimethyl sulfoxide (DMSO) to a concentration 100 times higher than the final concentration and then 25-fold dilution with the assay buffer to a concentration four times higher than the final concentration. An ATP/substrate/Metal solution was prepared by five-fold dilution of the 5×ATP/substrate/Metal solution attached to the kit with the assay buffer. An enzyme solution was prepared by dilution of the CDK2/cyclin A2 attached to the kit with the assay buffer to a concentration twice higher than the final concentration (final concentration of CDK2/cyclin A2: 2.5 ng/well). A detection reagent was prepared by five-fold dilution of 5×IMAP-binding buffer A with distilled water and 400-fold dilution of the IMAP-binding reagent with the diluted buffer.
as §2, with “60” for “45”
as §3, with “enzyme solution” for “enzyme solution,”, “against CDK2/cyclin A2.” for “against CDK4/cyclin D3.”
In each table, “+++” corresponds to IC50<10 nM, “++” 10 nM≤IC50<100 nM, and “+” 100 nM≤IC50.

T1 sequence (P11802 whole entry): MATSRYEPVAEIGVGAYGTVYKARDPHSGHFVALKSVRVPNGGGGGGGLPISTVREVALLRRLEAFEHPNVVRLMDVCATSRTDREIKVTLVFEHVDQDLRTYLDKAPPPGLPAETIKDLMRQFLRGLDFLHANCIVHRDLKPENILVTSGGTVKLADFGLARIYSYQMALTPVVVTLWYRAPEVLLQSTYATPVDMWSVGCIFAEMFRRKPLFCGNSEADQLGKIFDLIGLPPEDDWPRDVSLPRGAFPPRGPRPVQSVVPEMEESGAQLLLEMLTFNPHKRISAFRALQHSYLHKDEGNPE
T1 sequence (P30281 whole entry partner): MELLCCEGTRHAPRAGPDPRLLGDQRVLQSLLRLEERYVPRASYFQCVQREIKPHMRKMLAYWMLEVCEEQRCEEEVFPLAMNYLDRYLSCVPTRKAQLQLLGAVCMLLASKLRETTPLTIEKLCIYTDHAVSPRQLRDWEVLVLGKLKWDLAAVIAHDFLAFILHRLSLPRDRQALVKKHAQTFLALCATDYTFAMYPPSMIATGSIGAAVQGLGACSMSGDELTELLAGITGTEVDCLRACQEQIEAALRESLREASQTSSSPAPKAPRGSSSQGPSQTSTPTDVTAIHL

Row | Structure (SMILES) | pIC50 (CDK4/cyclin D3) | pIC50 (CDK2/cyclin A2)
1 | C[C@@H](O)c1cc2cnc(Nc3ccc4c(n3)CCN(C(=O)Cn3ccnn3)C4)nc2c(N2CCCCC2)n1 [Compound 336] | 7.00 to 8.00 | ≤ 7.00
2 | CC(F)(F)c1cc2cnc(Nc3ccc(N4CCNCC4)cn3)nc2c(N2CCOCC2)n1 [Compound 36] | ≤ 7.00 | ≤ 7.00
3 | C[C@@H](O)Cc1cc2cnc(Nc3ccc(CN4CCN(CCO)CC4)cn3)nc2c(N2CCCCC2)n1 [Compound 168] | 7.00 to 8.00 | ≤ 7.00
4 | C[C@@H](O)c1cc2cnc(Nc3ccc4c(n3)CCN(C(=O)CN3CCC(O)CC3)C4)nc2c(N2C3CCC2CC3)n1 [Compound 262] | > 8.00 | ≤ 7.00
5 | C[C@@H](O)c1cc2cnc(Nc3ccc(CN4CCN(CCO)CC4)cn3)nc2c(-c2ccccc2)n1 [Compound 190] | 7.00 to 8.00 | ≤ 7.00
6 | C[C@H](CO)c1cc2cnc(Nc3ccc4c(n3)CCN(CCO)C4)nc2c(N2CCCCC2)n1 [Compound 193] | 7.00 to 8.00 | ≤ 7.00
7 | CN1CCN(c2ccc(Nc3ncc4cc(CO)nc(N5CCCCC5)c4n3)nc2)CC1 [Compound 2] | > 8.00 | ≤ 7.00
8 | CN1CCN(c2ccc(Nc3ncc4cc(CO)nc(N5CCOCC5)c4n3)nc2)CC1 [Compound 1] | > 8.00 | ≤ 7.00
9 | C[C@@H](O)c1cc2cnc(Nc3ccc4c(n3)CCN(C(=O)[C@@H]3CCN(C)C3)C4)nc2c(N2C3CCC2CC3)n1 [Compound 226] | > 8.00 | ≤ 7.00
10 | C[C@@H](O)c1cc2cnc(Nc3ccc(C(=O)N4CCOCC4)cn3)nc2c(N2CCCCC2)n1 [Compound 310] | > 8.00 | ≤ 7.00
11 | C[C@H](O)Cc1cc2cnc(Nc3ccc(CN4CCN(CCO)CC4)cn3)nc2c(N2CCCCC2)n1 [Compound 202] | 7.00 to 8.00 | ≤ 7.00
12 | C[C@@H](O)c1cc2cnc(Nc3ccc(CN4CCN(C)CC4)cn3)nc2c(N2CCCC2(C)C)n1 [Compound 173] | > 8.00 | 7.00 to 8.00
13 | C[C@@H](O)c1cc2cnc(Nc3ccc(O[C@H]4CCCN(CCO)C4)cn3)nc2c(N2CCC[C@H](F)C2)n1 [Compound 255] | > 8.00 | ≤ 7.00
14 | Cc1nc(Nc2ncc3cc([C@@H](C)O)nc(N4CCCCC4)c3n2)ccc1N1CCN(C2CN(CCO)C2)CC1 [Compound 328] | > 8.00 | ≤ 7.00
15 | Cc1nc(Nc2ncc3cc([C@@H](C)O)nc(N4CCCCC4)c3n2)ccc1N1CCN(C)CC1 [Compound 54] | > 8.00 | ≤ 7.00
16 | CC(O)c1cc2cnc(Nc3ccc(CN4CCN(CCO)CC4)cn3)nc2c(N2C3CCC2COC3)n1 (centres unmarked) [Compound 295] | > 8.00 | ≤ 7.00
17 | C[C@@H](O)c1cc2cnc(Nc3ccc4c(n3)CCN(S(=O)(=O)C3CCNCC3)C4)nc2c(N2CCCCC2)n1 [Compound 163, (R)-1-(8-(piperidin-1-yl)-2-((6-(piperidin-4-ylsulfonyl)-5,6,7,8-tetrahydro-1,6-naphthyridin-2-yl)amino)pyrido[3,4-d]pyrimidin-6-yl)ethanol] | > 8.00 | ≤ 7.00

Other lines, results leading:

Row | pIC50 (CDK4/cyclin D3) | pIC50 (CDK2/cyclin A2) | Structure (SMILES)
18 | > 8.00 | ≤ 7.00 | Cc1nc(Nc2ncc3cc([C@@H](C)O)nc(N4CCOC[C@H]4C)c3n2)ccc1N1CCNCC1 [Compound 297]
19 | > 8.00 | ≤ 7.00 | Cc1ccccc1-c1nc(C(F)F)cc2cnc(Nc3ccc(N4CCNCC4)cn3)nc12 [Compound 30]
20 | > 8.00 | ≤ 7.00 | C[C@@H](O)c1cc2cnc(Nc3ccc(CN4CCN(CCO)CC4)cn3)nc2c(C2=CCCCC2)n1 [Compound 156]
21 | > 8.00 | ≤ 7.00 | C[C@@H](O)c1cc2cnc(Nc3ccc(N4CCNCC4)nn3)nc2c(N2CCCCC2)n1 [Compound 91]
22 | > 8.00 | ≤ 7.00 | C[C@@H](O)c1cc2cnc(Nc3ccc(CN4CCC(CO)CC4)cn3)nc2c(N2CCCC2)n1 [Compound 69]
23 | > 8.00 | ≤ 7.00 | C[C@@H](O)c1cc2cnc(Nc3ccc(CN4CCN(C)CC4)cn3)nc2c(N2CCC(F)CC2)n1 [Compound 115]
24 | > 8.00 | ≤ 7.00 | C[C@@H](O)c1cc2cnc(Nc3ccc(N4CCNCC4=O)cn3)nc2c(N2CCC(F)(F)CC2)n1 [Compound 64]
25 | > 8.00 | ≤ 7.00 | C[C@@H]1CCN(c2nc([C@@H](C)O)cc3cnc(Nc4ccc(CN5CCN(C)CC5)cn4)nc23)C1 [Compound 138]
26 | > 8.00 | ≤ 7.00 | C[C@@H](O)c1cc2cnc(Nc3ccc4c(n3)CCN(C3CNC3)C4)nc2c(N2CCCCC2)n1 [Compound 175]
27 | > 8.00 | ≤ 7.00 | C[C@@H](O)c1cc2cnc(Nc3ccc(CN4CCN(CCO)CC4)cn3)nc2c(N2CCC[C@@H](F)C2)n1 [Compound 199]
28 | > 8.00 | ≤ 7.00 | C[C@@H](O)c1cc2cnc(Nc3ccc(N4CCN(C)CC4=O)cn3)nc2c(N2CCCCC2)n1 [Compound 72]
29 | > 8.00 | ≤ 7.00 | C[C@@H](O)c1cc2cnc(Nc3ccc(OC4CCN(CCO)CC4)cn3)nc2c(N2CC[C@@H](F)C2)n1 [Compound 219]
30 | > 8.00 | ≤ 7.00 | C[C@@H](O)c1cc2cnc(Nc3ccc(CN4CCN(CCO)CC4)cn3)nc2c(N2CCCC2)n1 [Compound 48]
31 | > 8.00 | ≤ 7.00 | C[C@@H](O)c1cc2cnc(Nc3ccc(C(=O)N(C)CCN(C)C)cn3)nc2c(N2CCCCC2)n1 [Compound 316]
32 | > 8.00 | ≤ 7.00 | C[C@@H](O)c1cc2cnc(Nc3ccc4c(n3)CCN(C(=O)Cn3ccnc3)C4)nc2c(N2CCCCC2)n1 [Compound 286]
33 | > 8.00 | ≤ 7.00 | Cc1c(CO)nc(N2CCOCC2)c2nc(Nc3ccc(N4CCNCC4)cn3)ncc12 [Compound 33]
34 | > 8.00 | ≤ 7.00 | C[C@@H](O)c1cc2cnc(Nc3ccc4c(n3)CCN(CCN(C)C)C4)nc2c(N2CCC(F)(F)CC2)n1 [Compound 82]
35 | > 8.00 | ≤ 7.00 | C[C@@H](O)c1cc2cnc(Nc3ccc4c(n3)CCN(C(=O)[C@H]3C[C@@H](O)CN3)C4)nc2c(N2CCCCC2)n1 [Compound 213]
36 | > 8.00 | ≤ 7.00 | C[C@@H](O)c1cc2cnc(Nc3ccc(N4CCNCC4)nn3)nc2c(N2CCCCC2C(=O)O)n1 (some centres unmarked) [Compound 41]
37 | > 8.00 | ≤ 7.00 | C[C@H]1CCN(c2nc([C@@H](C)O)cc3cnc(Nc4ccc(CN5CCN(C)CC5)cn4)nc23)C1 [Compound 139]

— patent US11084814B2, “Pyrido[3, 4-d]pyrimidine derivative and pharmaceutically acceptable salt thereof” (Teijin Pharma Limited, priority 2016, dated 2021)
